The structures appear in SMILES notation.

The data set is described as follows: Compound was evaluated for pKa value by potentiometric titration. Format: physicochemical.
Take `C/C(=N/OCC(O)CNC(C)(C)C)C1CC1` (stereo unspecified): the pKa (commonly the pH at which an ionisable group is half protonated) was 9.45.
Regarding `CC(C)OCC(O)CNC(C)(C)C` (stereo unspecified), the pKa worked out at 9.9.
In turn, `CC(C)=NOCC(O)CNC(C)(C)C` (stereo unspecified) displayed a pKa of 9.42.
For the compound `CC1C/C(=N/OCC(O)CNC(C)(C)C)CC(C)(C)C1` (stereo unspecified), the pKa was determined as 9.41.
With `C=CC(C)(C)OCC(O)CNC(C)(C)C` (stereo unspecified), the pKa was found to be 9.67.
In turn, `CC1CC(OCC(O)CNC(C)(C)C)CC(C)(C)C1` (stereo unspecified) came in with a pKa of 9.94.
Regarding `CC(C)COCC(O)CNC(C)(C)C` (stereo unspecified), the pKa stood at 9.73.
`C/C(CC1CC1)=N/OCC(O)CNC(C)(C)C` (stereo unspecified): the pKa was determined as 9.57. The pKa values of the last two compounds are within 0.2 log units of each other.
The compound `CC(C)(C)COCC(O)CNC(C)(C)C` (stereo unspecified) had a pKa of 9.68.
As to `CC(NOCC(O)CNC(C)(C)C)C1CC1` (stereo unspecified), the pKa came to 9.1.
Consider `C/C(=N/OCC(O)CNC(C)(C)C)C(C)C` (stereo unspecified), for which the pKa was 9.27.
`CC(C)(C)NCC(O)COCC1CC1` (stereo unspecified): the pKa was 9.73.
`CC(C)(C)NCC(O)COC(C1CC1)C1CC1` (stereo unspecified) yielded a pKa of 9.63.
Compound `CC(OCC(O)CNC(C)(C)C)C1CC1` (stereo unspecified) gave a pKa of 9.76.
Take `CC(C)(C)NCC(O)CON=C(C1CC1)C1CC1` (stereo unspecified): the pKa amounted to 9.64.
Consider `CC(C)(C)NCC(O)CO/N=C\C1CC1` (stereo unspecified), for which the pKa was 9.64.

For the origin of these results see ChEMBL document CHEMBL1122733, “Synthesis and beta-adrenergic blocking activity of new aliphatic and alicyclic oxime ethers” (J Med Chem, 1984).
